ChEMBL document CHEMBL4033701, “Cytotoxic triterpene diglycosides from the sea cucumber Stichopus horrens” (Bioorg Med Chem Lett, 2017)

Assays:
Assay type in all cases: functional, cell-based
[1] = tested on: LNCaP; test: Cytotoxicity against human LNCAP cells after 72 hrs by SRB assay
[2] = tested on: MCF7; test: Cytotoxicity against human MCF7 cells after 72 hrs by SRB assay; details: MCF7, 72 h
[3] = tested on: KB; test: Cytotoxicity against human KB cells after 72 hrs by SRB assay
[4] = tested on: HepG2; test: Cytotoxicity against human HepG2 cells after 72 hrs by SRB assay; details: HepG2, 72 h
[5] = tested on: SK-MEL-2; test: Cytotoxicity against human SK-MEL-2 cells after 72 hrs by SRB assay; details: SK-MEL-2, 72 h

| Compound | IC50 [1] [µM] | IC50 [2] [µM] | IC50 [3] [µM] | IC50 [4] [µM] | IC50 [5] [µM] |
| --- | --- | --- | --- | --- | --- |
| C=C(C)C[C@@H](C[C@]1(C)OC(=O)[C@]23CC[C@H]4C(=CC[C@H]5C(C)(C)[C@@H](O[C@@H]6OC[C@@H](O)[C@H](O)[C@H]6O[C@@H]6OC[C@@H](O)[C@H](O)[C@H]6O)CC[C@]45C)[C@]2(C)CC[C@@H]31)OC(C)=O | 3.13 | 2.11 | 2.36 | 1.92 | 2.27 |
| C=C(C)CCC(O)[C@]1(C)OC(=O)[C@]23CC[C@H]4C(=CC[C@H]5C(C)(C)[C@@H](O[C@@H]6OC[C@@H](O)[C@H](O)[C@H]6O[C@@H]6O[C@H](CO)[C@@H](O)[C@H](O)[C@H]6O)CC[C@]45C)[C@]2(C)CC[C@H]13 (stereo partly drawn) | 51.6 | 41.9 | 33.5 | 37.9 | 43.5 |
| CC(=O)O[C@@H](CC(C)C)C[C@]1(C)OC(=O)[C@]23CC[C@H]4C(=CC[C@H]5C(C)(C)[C@@H](O[C@@H]6OC[C@@H](O)[C@H](O)[C@H]6O[C@@H]6O[C@H](C)[C@@H](O)[C@H](O)[C@H]6O)CC[C@]45C)[C@]2(C)CC[C@@H]31 | 3.02 | 2.12 | 2.82 | 2.97 | 2.7 |
| CC(=O)O[C@@H](CC(C)C)C[C@]1(C)OC(=O)[C@]23CC[C@H]4C(=CC[C@H]5C(C)(C)[C@@H](O[C@@H]6OC[C@@H](O)[C@H](O)[C@H]6O[C@@H]6OC[C@@H](O)[C@H](O)[C@H]6O)CC[C@]45C)[C@]2(C)CC[C@@H]31 | 2.7 | 2.08 | 3.11 | 2.04 | 2.21 |
| C=C(C)CCC(O)[C@]1(C)OC(=O)[C@]23CC[C@H]4C(=CC[C@H]5C(C)(C)[C@@H](O[C@@H]6OC[C@@H](O)[C@H](O)[C@H]6O[C@@H]6O[C@H](CO)[C@@H](OS(=O)(=O)O)[C@H](O)[C@H]6O)CC[C@]45C)[C@]2(C)CC[C@H]13 (stereo partly drawn) | 51.5 | 59.5 | 45.4 | 55.3 | 67.2 |
| CC(C)C[C@H](O)C[C@]1(C)OC(=O)[C@]23CC[C@H]4C(=CC[C@H]5C(C)(C)[C@@H](O[C@@H]6OC[C@@H](O)[C@H](O)[C@H]6O[C@@H]6OC[C@@H](O)[C@H](O)[C@H]6O)CC[C@]45C)[C@]2(C)CC[C@@H]31 | 59.3 | 52.2 | 48.4 | 53.8 | 41.9 |
| CC(=O)O[C@@H](CC(C)C)C[C@]1(C)OC(=O)[C@]23CC[C@H]4C(=CC[C@H]5C(C)(C)[C@@H](O[C@@H]6OC[C@@H](O)[C@H](O)[C@H]6O[C@@H]6O[C@H](CO)[C@@H](O)[C@H](O)[C@H]6O)CC[C@]45C)[C@]2(C)CC[C@@H]31 | 7.6 | 6.36 | 8.86 | 5.28 | 5.77 |
| C=C(C)C[C@@H](C[C@]1(C)OC(=O)[C@]23CC[C@H]4C(=CC[C@H]5C(C)(C)[C@@H](O[C@@H]6OC[C@@H](O)[C@H](O)[C@H]6O[C@@H]6O[C@H](CO)[C@@H](O)[C@H](O)[C@H]6O)CC[C@]45C)[C@]2(C)CC[C@@H]31)OC(C)=O | 10.1 | 7.25 | 11 | 7.03 | 10.8 |
| Cc1c2ccncc2c(C)c2c1[nH]c1ccccc12 [ELLIPTECINE] | 1.95 | – | 1.79 | – | 1.91 |
